Publication PMC11601558, “SLC6A19 inhibition facilitates urinary neutral amino acid excretion and lowers plasma phenylalanine” (JCI Insight, 2024)

Legend:
healthy volunteers [1] = assay: Urine amino acid excretion in healthy volunteers (pharmacodynamics); format: in vivo, human
Procedure: The effect of JNT-517 on plasma and urine AA levels was measured using an ultra-performance liquid chromatography mass spectrometry assay following 6-aminoquinolyl-N-hydroxysuccinimidyl carbamate (AQC) derivatization. For the SAD study, plasma samples were collected on day –1 and day 1 predose, as well as 24, 48, and 72 hours after dosing. A first morning void urine sample on Days –1 and 1 predose, as well as 2 pooled urine samples 0–8 hours after and 8–24 hours after dose were also collected following study drug administration. For the MAD study, plasma samples were collected on day –1, 1, 7, and 14 predose, as well as day 14, 24 hours after dosing. A first morning void urine samples on day –1, 1, 7, and 14 as well as 2 pooled urine samples 0–8 hours and 8–24 hours after dose on days 1, 7, and 14 were also collected following JNT-517 or placebo administration. Study participants in SAD and MAD cohorts were dosed in the morning following an overnight fast of at least 8 hours and were provided the following meals in relation to dosing times: breakfast after the morning dose, lunch 4 hours after morning dose, optional snack in the afternoon 8 hours after the morning dose and after the second dose for MAD cohorts dosed BID, dinner approximately 10 hours after the morning dose and at least 2 hours after the second dose for MAD cohorts dosed BID. Predose plasma amino acids were drawn after a minimum of 8 hours fasting overnight and after-dose levels were drawn after > 1.5 hours fasting. Resulting plasma and urine amino acid concentration measurements, as well a total amino acid excretion over a time period were summarized using appropriate descriptive statistics and compared with either predose levels or placebo-dose values. Tryptophan was not included in the amino acid panel due to analytical limitations.
IC50 values for transport inhibition in cells overexpressing SLC6A19 and TMEM27 were calculated using a 4-parameter logistic regression in Collaborative Drug Discovery (CDD). Reported IC50 values are geometric means of 4–6 independent experiments. For postmortem intestinal transport assays, single outliers of quadruplicate replicates were excluded from the calculation if a signal value’s distance to the mean exceeded 35% of the signal average. The IC50 values of individual experiments were calculated with a 3- or 4-parameter logistic regression using GraphPad Prism 9. The reported IC50 value represents the geometric mean of n = 5 experiments from 3 individual donors. Statistical comparison of urinary Phe excretion in Pah^enu2 mice treated with vehicle or JN-170 was conducted using 1-way analysis of variance (ANOVA) with Tukey’s post hoc comparison. Statistical analysis of baseline-adjusted plasma Phe in mice treated with vehicle or JN-170 was determined by 2-way ANOVA with Dunnett’s post hoc comparison. All statistical analyses were performed using GraphPad Prism 9. For clinical studies, group sizes were not determined based on statistical power calculations. Statistical significance of pharmacodynamic results was not assessed. Values are reported as mean (urinary Phe excretion, T1/2, Cl/F), geometric mean (Cmax/D, AUC0-inf/D), or median (Tmax).

healthy volunteers [2] = assay: Phase 1 safety and tolerability, single ascending dose (SAD) cohorts; format: in vivo, human; details: for AEs leading to IP discontinuation / Any CTCAE Grade ≥ 3 / Any TEAE / Death / SAE / TEAE Alanine aminotransferase increased / TEAE Aspartate aminotransferase increased / TEAE Blood creatine phosphokinase increased / TEAE Catheter site pain / TEAE Dizziness / TEAE Headache / TEAE Hematuria / TEAE Nausea / TEAE Pyrexia / TEAE Syncope / TEAE Upper respiratory tract infection / TEAE Urinary tract infection: n = 6
Procedure: Parts A and B of this phase 1, randomized, double-blind, placebo-controlled SAD and MAD oral dose study with JNT-517 were conducted in healthy volunteers. The primary objective for these studies was to assess the safety and tolerability of single and multiple doses of JNT-517 in healthy participants. The secondary objective for these studies was to assess the PK of single and multiple oral doses of JNT-517.
Eligible participants included males and females 18 to 55 years of age, medically healthy with no clinically notable medical history, a BMI of 18–40 kg/m^2 and total body weight > 50 kg (110 lbs), and who have been nonsmokers for at least 2 weeks prior to and throughout dosing.
In total, 40 participants who were healthy adult were randomized to receive JNT-517 (10–170 mg) or placebo (3:1 ratio) in 5 cohorts of 8 participants as SADs. […] Within each SAD cohort, a sentinel group of 2 participants were initially randomized to receive JNT-517 or placebo in a 1:1 ratio. Once safety was confirmed for these 2 sentinel participants over a 48-hour observation period, the remaining 6 participants in the same cohort were randomized 5:1 to receive JNT-517 or placebo. Both JNT-517 and placebo were administered as an on-site compounded suspension.
In both SAD and MAD studies, safety and tolerability were assessed by AE monitoring, clinical laboratory tests (blood chemistries, hematology, coagulation, serology, and urinalysis), vital signs, 12-lead electrocardiograms, and physical examinations. Safety assessment and corresponding samples were collected on day-1 prior to dosing and days 1, 2, 3, and 8 for the SAD study or throughout the 14 days of dosing and day 21 for the MAD study.

NC(=O)N1CCC[C@@H](N(C(=O)NCc2ccc(OC(F)(F)F)cc2F)C2CC2)C1 [JNT-517]
24 hour Phe excretion, mean ± SD (healthy volunteers [1]; MAD day 14, 75 mg BID): 89 ± 34 mg | Phe excreted from 0–8 hours, mean ± SD (healthy volunteers [1]; MAD day 14, 75 mg BID): 32 ± 20 mg | urine Phe excreted from 8–24 hours, mean ± SD (healthy volunteers [1]; MAD day 14, 75 mg BID): 56 ± 19 mg | 24 hour Phe excretion, mean ± SD (healthy volunteers [1]; MAD day 14, 150 mg QD): 72 ± 18 mg | Phe excreted from 0–8 hours, mean ± SD (healthy volunteers [1]; MAD day 14, 150 mg QD): 53 ± 16 mg | urine Phe excreted from 8–24 hours, mean ± SD (healthy volunteers [1]; MAD day 14, 150 mg QD): 20 ± 11 mg | Phe excreted in urine over a 24 hour period, mean ± SD (healthy volunteers [1]; SAD 170 mg): 142 ± 30 mg | increase in 24 hour urinary Phe vs placebo (healthy volunteers [1]; SAD 170 mg): approximately 14 fold | glutamine excreted in urine, mean ± SD (healthy volunteers [1]; SAD 170 mg, Supplemental Figure 6): 1,904 ± 541 mg | AEs leading to IP discontinuation (healthy volunteers [2]; SAD 10 mg): 0 Number (%) | Any CTCAE Grade ≥ 3 (healthy volunteers [2]; SAD 10 mg): 0 Number (%) | Any TEAE (healthy volunteers [2]; SAD 10 mg): 2 (33.3) Number (%) | Death (healthy volunteers [2]; SAD 10 mg): 0 Number (%) | SAE (healthy volunteers [2]; SAD 10 mg): 0 Number (%) | TEAE Alanine aminotransferase increased (healthy volunteers [2]; SAD 10 mg): 0 Number (%) | TEAE Aspartate aminotransferase increased (healthy volunteers [2]; SAD 10 mg): 0 Number (%) | TEAE Blood creatine phosphokinase increased (healthy volunteers [2]; SAD 10 mg): 0 Number (%) | TEAE Catheter site pain (healthy volunteers [2]; SAD 10 mg): 1 (16.7) Number (%) | TEAE Dizziness (healthy volunteers [2]; SAD 10 mg): 1 (16.7) Number (%) | TEAE Headache (healthy volunteers [2]; SAD 10 mg): 1 (16.7) Number (%) | TEAE Hematuria (healthy volunteers [2]; SAD 10 mg): 0 Number (%) | TEAE Nausea (healthy volunteers [2]; SAD 10 mg): 1 (16.7) Number (%) | TEAE Pyrexia (healthy volunteers [2]; SAD 10 mg): 0 Number (%) | TEAE Syncope (healthy volunteers [2]; SAD 10 mg): 0 Number (%) | TEAE Upper respiratory tract infection (healthy volunteers [2]; SAD 10 mg): 0 Number (%) | TEAE Urinary tract infection (healthy volunteers [2]; SAD 10 mg): 0 Number (%) | AEs leading to IP discontinuation (healthy volunteers [2]; SAD 25 mg): 0 Number (%) | Any CTCAE Grade ≥ 3 (healthy volunteers [2]; SAD 25 mg): 1 (16.7) Number (%) | Any TEAE (healthy volunteers [2]; SAD 25 mg): 2 (33.3) Number (%) | Death (healthy volunteers [2]; SAD 25 mg): 0 Number (%) | SAE (healthy volunteers [2]; SAD 25 mg): 0 Number (%) | TEAE Alanine aminotransferase increased (healthy volunteers [2]; SAD 25 mg): 1 (16.7) Number (%) | TEAE Aspartate aminotransferase increased (healthy volunteers [2]; SAD 25 mg): 1 (16.7) Number (%) | TEAE Blood creatine phosphokinase increased (healthy volunteers [2]; SAD 25 mg): 1 (16.7) Number (%) | TEAE Catheter site pain (healthy volunteers [2]; SAD 25 mg): 0 Number (%) | TEAE Dizziness (healthy volunteers [2]; SAD 25 mg): 0 Number (%) | TEAE Headache (healthy volunteers [2]; SAD 25 mg): 0 Number (%) | TEAE Hematuria (healthy volunteers [2]; SAD 25 mg): 1 (16.7) Number (%) | TEAE Nausea (healthy volunteers [2]; SAD 25 mg): 0 Number (%) | TEAE Pyrexia (healthy volunteers [2]; SAD 25 mg): 0 Number (%) | TEAE Syncope (healthy volunteers [2]; SAD 25 mg): 0 Number (%) | TEAE Upper respiratory tract infection (healthy volunteers [2]; SAD 25 mg): 0 Number (%) | TEAE Urinary tract infection (healthy volunteers [2]; SAD 25 mg): 0 Number (%) | AEs leading to IP discontinuation (healthy volunteers [2]; SAD 50 mg): 0 Number (%) | Any CTCAE Grade ≥ 3 (healthy volunteers [2]; SAD 50 mg): 1 (16.7) Number (%) | Any TEAE (healthy volunteers [2]; SAD 50 mg): 2 (33.3) Number (%) | Death (healthy volunteers [2]; SAD 50 mg): 0 Number (%) | SAE (healthy volunteers [2]; SAD 50 mg): 0 Number (%) | TEAE Alanine aminotransferase increased (healthy volunteers [2]; SAD 50 mg): 0 Number (%) | TEAE Aspartate aminotransferase increased (healthy volunteers [2]; SAD 50 mg): 0 Number (%) | TEAE Blood creatine phosphokinase increased (healthy volunteers [2]; SAD 50 mg): 0 Number (%) | TEAE Catheter site pain (healthy volunteers [2]; SAD 50 mg): 0 Number (%) | TEAE Dizziness (healthy volunteers [2]; SAD 50 mg): 0 Number (%) | TEAE Headache (healthy volunteers [2]; SAD 50 mg): 1 (16.7) Number (%) | TEAE Hematuria (healthy volunteers [2]; SAD 50 mg): 0 Number (%) | TEAE Nausea (healthy volunteers [2]; SAD 50 mg): 0 Number (%) | TEAE Pyrexia (healthy volunteers [2]; SAD 50 mg): 0 Number (%) | TEAE Syncope (healthy volunteers [2]; SAD 50 mg): 1 (16.7) Number (%) | TEAE Upper respiratory tract infection (healthy volunteers [2]; SAD 50 mg): 1 (16.7) Number (%) | TEAE Urinary tract infection (healthy volunteers [2]; SAD 50 mg): 0 Number (%) | AEs leading to IP discontinuation (healthy volunteers [2]; SAD 100 mg): 0 Number (%) | Any CTCAE Grade ≥ 3 (healthy volunteers [2]; SAD 100 mg): 0 Number (%) | Any TEAE (healthy volunteers [2]; SAD 100 mg): 0 Number (%) | Death (healthy volunteers [2]; SAD 100 mg): 0 Number (%) | SAE (healthy volunteers [2]; SAD 100 mg): 0 Number (%) | TEAE Alanine aminotransferase increased (healthy volunteers [2]; SAD 100 mg): 0 Number (%) | TEAE Aspartate aminotransferase increased (healthy volunteers [2]; SAD 100 mg): 0 Number (%) | TEAE Blood creatine phosphokinase increased (healthy volunteers [2]; SAD 100 mg): 0 Number (%) | TEAE Catheter site pain (healthy volunteers [2]; SAD 100 mg): 0 Number (%) | TEAE Dizziness (healthy volunteers [2]; SAD 100 mg): 0 Number (%) | TEAE Headache (healthy volunteers [2]; SAD 100 mg): 0 Number (%) | TEAE Hematuria (healthy volunteers [2]; SAD 100 mg): 0 Number (%) | TEAE Nausea (healthy volunteers [2]; SAD 100 mg): 0 Number (%) | TEAE Pyrexia (healthy volunteers [2]; SAD 100 mg): 0 Number (%) | TEAE Syncope (healthy volunteers [2]; SAD 100 mg): 0 Number (%) | TEAE Upper respiratory tract infection (healthy volunteers [2]; SAD 100 mg): 0 Number (%) | TEAE Urinary tract infection (healthy volunteers [2]; SAD 100 mg): 0 Number (%) | AEs leading to IP discontinuation (healthy volunteers [2]; SAD 170 mg): 0 Number (%) | Any CTCAE Grade ≥ 3 (healthy volunteers [2]; SAD 170 mg): 0 Number (%) | Any TEAE (healthy volunteers [2]; SAD 170 mg): 1 (16.7) Number (%) | Death (healthy volunteers [2]; SAD 170 mg): 0 Number (%) | SAE (healthy volunteers [2]; SAD 170 mg): 0 Number (%) | TEAE Alanine aminotransferase increased (healthy volunteers [2]; SAD 170 mg): 0 Number (%) | TEAE Aspartate aminotransferase increased (healthy volunteers [2]; SAD 170 mg): 0 Number (%) | TEAE Blood creatine phosphokinase increased (healthy volunteers [2]; SAD 170 mg): 0 Number (%) | TEAE Catheter site pain (healthy volunteers [2]; SAD 170 mg): 0 Number (%) | TEAE Dizziness (healthy volunteers [2]; SAD 170 mg): 0 Number (%) | TEAE Headache (healthy volunteers [2]; SAD 170 mg): 0 Number (%) | TEAE Hematuria (healthy volunteers [2]; SAD 170 mg): 0 Number (%) | TEAE Nausea (healthy volunteers [2]; SAD 170 mg): 0 Number (%) | TEAE Pyrexia (healthy volunteers [2]; SAD 170 mg): 1 (16.7) Number (%) | TEAE Syncope (healthy volunteers [2]; SAD 170 mg): 0 Number (%) | TEAE Upper respiratory tract infection (healthy volunteers [2]; SAD 170 mg): 0 Number (%) | TEAE Urinary tract infection (healthy volunteers [2]; SAD 170 mg): 1 (16.7) Number (%) | incidence of adverse events (AE) (healthy volunteers [2]; SAD cohorts, all JNT-517 doses (7 of 30)): 23.3% | safety and tolerability (healthy volunteers [2]; healthy participants, SAD 10–170 mg and MAD 14 days): safe and well tolerated
